Source: PMC12297887, “Enhanced Anticancer Potential of Pd(II)-Thiosemicarbazone Complexes: Selectivity, Mechanisms, and 3D Models” (Pharmaceutics, 2025)

Assays:
[1] = system: MDA-MB-231 (triple-negative breast cancer); test: Cell viability (MTT), MDA-MB-231; type: cell-based, human; conditions: for IC50: 48 h of incubation, MTT; for Selectivity index (SI) MDA-MB-231: IC50 MRC5 / IC50 MDA-MB-231
Procedure: (§1) The cell lines used in the tests were A2780 (ovarian cancer), A2780cis (ovarian cisplatin resistant cancer), A549 (lung cancer), MRC5 (non-tumoral lung […]), MDA-MB-231 (triple-negative breast cancer), MCF-7 (breast cancer), SK-BR-3 (breast cancer), MCF-10A (non-tumoral breast cancer), and A375 (skin cancer—melanoma).
(§2) The MCF-10A cell line was grown in DMEM/F-12 culture medium, supplemented with 5% horse serum, human epidermal growth factor (EGF) (20 ng/mL), hydrocortisone (0.05 mg/mL), insulin (0.01 mg/mL), penicillin (1%), streptomycin (1%), and L-glutamine (2 mM). The A2780, A2780cis, and MCF-7 cell lines were cultured in RPMI-1640 medium, and the other lines in DMEM medium; both culture media were supplemented with 10% (v/v) FBS (fetal bovine serum), antibiotics, and antimycotics. Cultivation was carried out in culture flasks stored in a humid incubator at 37 °C, with an atmosphere of 5% CO2.
(§3) The plates were kept for 24 h in a humidified incubator (37 °C, 5% CO2), after which 0.75 μL of a DMSO solution (0.5% v/v) containing the compounds of interest was added to each well. The plates were then incubated for a further 48 h. The ratio of viability of cells was obtained using the MTT method. Through its reduction via the mitochondrial process, purple formazan is formed, which is proportional to cell viability. After incubating the microplates, 50 μL of a solution of MTT (1 mg∙mL^−1) in PBS was added to each well and the cells were incubated again in the oven for 4 h. Finally, the solution was removed from each well and 100 μL of isopropyl alcohol with 10% DMSO was added to solubilize the Formazan crystals. Absorbance measurements (540 nm) were then taken in each well using a BioTek EPOCH spectrophotometer (BioTek, Winooski, WT, USA). The data obtained was analyzed using Excel 360 and GraphPadPrism 8.0.2.

MCF-7 (breast cancer) = test: Cell viability (MTT), MCF-7; type: cell-based, human; conditions: for IC50: 48 h of incubation, MTT; for Selectivity index (SI) MCF-7: IC50 MRC5 / IC50 MCF-7
Procedure: as §1, §2, §3

SK-BR-3 (breast cancer) = test: Cell viability (MTT), SK-BR-3; type: cell-based, human; conditions: for IC50: 48 h of incubation, MTT; for Selectivity index (SI) SK-BR-3: IC50 MRC5 / IC50 SK-BR-3
Procedure: as §1, §2, §3

A2780 (ovarian cancer) = test: Cell viability (MTT), A2780; type: cell-based; conditions: for IC50: 48 h of incubation, MTT; for Selectivity index (SI) A2780: IC50 MRC5 / IC50 A2780
Procedure: as §1, §2, §3

[2] = system: A2780cis (ovarian cisplatin resistant cancer); test: Cell viability (MTT), A2780cis; type: cell-based; conditions: for IC50: 48 h of incubation, MTT; for resistance factor (RF): IC50(A2780cis)/IC50(A2780); for Selectivity index (SI) A2780cis: IC50 MRC5 / IC50 A2780cis
Procedure: as §1, §2, §3

A549 (lung cancer) = test: Cell viability (MTT), A549; type: cell-based; conditions: for IC50: 48 h of incubation, MTT; for Selectivity index (SI) A549: IC50 MRC5 / IC50 A549
Procedure: as §1, §2, §3

MRC5 (non-tumoral lung) = test: Cell viability (MTT), MRC5; type: cell-based; conditions: 48 h of incubation, non-tumor lung fibroblast
Procedure: as §1, §2, §3

[3] = Stability in DMSO by 31P{1H} NMR; type: physicochemical; conditions: d6-DMSO, after 48 h, no change in chemical shift
Procedure: The ^31P{^1H} NMR experiment was also carried out and the chemical shift values of the different complexes synthesized were similar to each other. There was a shift in the free PPh3 signal from −6.81 ppm to 30 ppm (Figure S12), indicating a reduction in the electronic density at the P of the triphenylphosphine due to coordination with Pd(II). Also, the PdB3 complex was tested for stability in DMSO.

[4] = system: MCF-10A (non-tumoral breast); test: Cell viability (MTT), MCF-10A; type: cell-based, human; conditions: 48 h of incubation, non-tumorigenic breast line, read-out: IC50 MFC-10A
Procedure: as §1, §2, §3

[5] = system: A375 (skin cancer, melanoma); test: Cell viability (MTT), A375; type: cell-based; conditions: 48 h of incubation
Procedure: as §1, §2, §3

A2780cis cells [6] = test: Clonogenic assay; type: cell-based; conditions: concentrations in relation to the IC50 of each complex, five days of treatment
Procedure: For this test, 600 cells of the A2780cis strain were added to each well of a six-well microplate. After incubating for 24 h in a 5% CO2 atmosphere, different concentrations of the compounds were added to the wells and incubated again for five days. After this period, the culture medium was changed and the plates were incubated for a further five days. Finally, the culture medium was removed and washed with PBS. Subsequently, a solution of methanol and acetic acid (3:1 v/v) was added for five minutes, and then the cells were stained with methyl violet solution. The plates were washed with distilled water. After drying, they were photographed using the iBright™ FL1500 (ThermoFisher, Waltham, MA, USA) and analyzed using ImageJ 1.53 software.

A2780cis cells [7] = test: Apoptosis assay (PE-Annexin V/7AAD, flow cytometry); type: cell-based; conditions: ½ × IC50, 24 h; control 86.4%
Procedure: Apoptosis in A2780cis cells induced by the complexes was analyzed by flow cytometry; a PE-Annexin-V Apoptosis Detection kit (BD Biosciences) was employed. The cells (1 × 10^5 cells/well) were seeded in a 24-well plate. After incubation for 24 h, the cells were exposed to increasing concentrations of complex PdB1 for 24 h. After treatment, the cells were collected, centrifuged at 2000 rpm and 4 °C for 5 min, washed with ice-cold PBS, and resuspended in 150 µL of binding buffer. PE-Annexin V (2.5 µL) and 7ADD (2.5 µL) were added, which was followed by incubation in the dark at room temperature for 20 min. Then, the cells were centrifuged at 2000 rpm and 4 °C for 5 min, resuspended in 400 µL of binding buffer, and analyzed on an Accuri C6 (BD Biosciences) flow cytometer; 10,000 events were recorded. Fluorescence was quantified in triplicate with the Cell Quest software (BD Biosciences). Untreated cells were the negative control.

A2780cis spheroids = test: Three-dimensional (spheroid) assay; type: cell-based; conditions: for cell death within spheroids (DAPI/PI staining): 48 h; for spheroid morphology (brightfield): 48 h of treatment
Procedure: The 3D culture assay was performed with the A2780cis cell line using the Greiner Bio-One 96-well magnetic bioprinting kit. In total, 150 µL of magnetic nanoparticles were added to the cells grown in a 25 cm^2 bottle and incubated for 24 h. Then, 3750 cells/well were added to repellent 96-well plates, taken to the magnetic drive, and incubated for 4 days for the formation of […]. Once the spheroids had been obtained, they were treated with the compound PdB1 at different concentrations. Finally, images of the spheroids were recorded at 0 and 48 h, and images with fluorescence markers (DAPI and PI) were also obtained for the 48 h period using a logos biosystems CELENA® S fluorescence microscope.

A2780cis cells [8] = test: Cell viability (LIVE/DEAD kit); type: cell-based; conditions: beginning at ½ × IC50, 48 h
Procedure: 1.0 × 10^4 A2780cis cells were added to each well in a 96-well plate. After 24 h, the cells were treated with different concentrations of the compound and incubated again for 48 h. Then 100 µL of the LIVE/DEAD® solution prepared as described by the manufacturer was added. The images were acquired using a fluorescence microscope (CELENA® S logos biosystems) with a 4× objective, carried out in triplicate. Live and dead cells were counted using ImageJ 1.53 software and the IC50 value was calculated using GraphPad Prism 8.0.2.

A2780cis cells [9] = test: Cell morphology assay (DAPI / Green Plasma fluorescence); type: cell-based; conditions: starting at ½ × IC50, 48 h
Procedure: For morphological analysis by fluorescence with Green Plasma and DAPI, 1 × 10^4 cells/well of A2780cis were added to 96-well plates and incubated for 24 h. After this, the cells were treated with different concentrations of the compound and incubated for 48 h. Then the medium was removed and the cells were fixed with methanol for 5 min, and 50 μL of CellMasK Green Plasma membrane was added. After 5 min, 50 µL of DAPI was added and incubated at room temperature for a further 10 min. Images were taken using a fluorescence microscope (CELENA® S Logos Biosystems, Anyang-si, Republic of Korea) with the appropriate filters.

Row | SMILES | IC50 [1] | Selectivity index (SI) MDA-MB-231 [1] | IC50 (MCF-7 (breast cancer)) | Selectivity index (SI) MCF-7 (MCF-7 (breast cancer)) | IC50 (SK-BR-3 (breast cancer)) | IC50 (A2780 (ovarian cancer)) | Selectivity index (SI) A2780 (A2780 (ovarian cancer)) | IC50 [2] | resistance factor (RF) [2] | Selectivity index (SI) A2780cis [2] | IC50 (A549 (lung cancer)) | Selectivity index (SI) A549 (A549 (lung cancer)) | IC50 (MRC5 (non-tumoral lung)) | Selectivity index (SI) SK-BR-3 (SK-BR-3 (breast cancer)) | IC50 [4] | IC50 [5] | other results
1 | CCNC1=[S+][Pd-]([Cl])([PH](c2ccccc2)(c2ccccc2)c2ccccc2)[N+](=C(C)/C=C/c2ccccc2)N1.[Cl-] [PdB3, [PdCl(L-B3)(PPh3)]Cl] | 1.04 ± 0.06 µM | 8.9 | 0.91 ± 0.008 µM | 10.2 | < 2 µM | 0.23 ± 0.01 µM | 40.3 | 0.26 ± 0.01 µM | 1.13 | 35.7 | 13 ± 1 µM | 0.7 | 9.28 ± 0.3 µM | – | – | – | stability in DMSO [3]: remained stable
2 | NC1=[S+][Pd-]([Cl])([PH](c2ccccc2)(c2ccccc2)c2ccccc2)[N+](=C(/C=C/c2ccccc2)c2ccccc2)N1.[Cl-] [PdC1, [PdCl(L-C1)(PPh3)]Cl] | 5.97 ± 0.1 µM | 7.8 | 17.7 ± 1 µM | 2.6 | 2.25 ± 0.3 µM | 0.4 ± 0.01 µM | 116.9 | 0.62 ± 0.01 µM | 1.55 | 75.4 | > 50 µM | – | 46.8 ± 2 µM | 20.8 | 2.64 ± 0.06 µM | > 50 µM | colony formation (A2780cis cells [6]): reduced colony formation
3 | CNC1=[S+][Pd-]([Cl])([PH](c2ccccc2)(c2ccccc2)c2ccccc2)[N+](=C(/C=C/c2ccccc2)c2ccccc2)N1.[Cl-] [PdC2, [PdCl(L-C2)(PPh3)]Cl] | 9.66 ± 0.4 µM | – | > 50 µM | – | > 50 µM | 3.93 ± 0.2 µM | – | 1.66 ± 0.01 µM | 0.42 | – | > 50 µM | – | > 50 µM | – | – | – | –
4 | CNC(NN=C(C)C=Cc1ccccc1)=[S][Pd]([Cl])[P](c1ccccc1)(c1ccccc1)c1ccccc1.[Cl-] [PdB2] | 0.92 ± 0.08 µM | 7.4 | 1.47 ± 0.2 µM | 4.7 | 1.48 ± 0.06 µM | 0.13 ± 0.01 µM | 52.7 | 0.21 ± 0.01 µM | 1.62 | 32.6 | 30.4 ± 0.4 µM | 0.2 | 6.85 ± 0.3 µM | 4.6 | – | – | –
5 | CC#N.CC#N.[Cl][Pd][Cl] [[PdCl2(MeCN)2], reference compound] | > 50 µM | – | – | – | – | – | – | > 50 µM | – | – | > 50 µM | – | > 50 µM | – | – | – | –
6 | N.N.[Cl][Pt][Cl] [Cisplatin, reference compound] | 33.14 ± 0.3 µM | 0.7 | 8.64 ± 0.8 µM | 2.5 | 5.86 ± 0.2 µM | 14.24 ± 0.05 µM | 1.5 | 25.1 ± 0.9 µM | 1.76 | 0.9 | 13 ± 0.4 µM | 1.7 | 21.6 ± 0.8 µM | 3.7 | 23.9 ± 0.7 µM | 12.2 ± 0.62 µM | –
7 | CC(/C=C/c1ccccc1)=[N+]1NC(N)=[S+][Pd-]1([Cl])[PH](c1ccccc1)(c1ccccc1)c1ccccc1.[Cl-] [PdB1, [PdCl(L-B1)(PPh3)]Cl] | 1.45 ± 0.1 µM | 1.2 | 3.79 ± 0.4 µM | 0.4 | 1.42 ± 0.07 µM | 0.12 ± 0.01 µM | 14.2 | 0.2 ± 0.01 µM | 1.66 | 8.5 | 44.8 ± 2 µM | – | 1.7 ± 0.2 µM | 1.2 | 1.58 ± 0.07 µM | 1.34 ± 0.08 µM | Q2-LL (viable cells, Q3 in the text) (A2780cis cells [7]): 37.1%; cell death within spheroids (DAPI/PI staining) (A2780cis spheroids; 12.5 µM): significant level of cell death; cell death within spheroids (DAPI/PI staining) (A2780cis spheroids; 25 µM): complete disintegration; spheroid morphology (brightfield) (A2780cis spheroids; 25 µM): marked reduction in compaction and cohesion; spheroid morphology (brightfield) (A2780cis spheroids; lower concentrations): continued spheroid growth; colony formation (A2780cis cells [6]): significantly reduced colony formation; LIVE/DEAD viability (A2780cis cells [8]): marked increase in red-fluorescing (non-viable) cells; nuclear morphology (DAPI staining) (A2780cis cells [9]): chromatin condensation and nuclear fragmentation
8 | CCNC1=[S+][Pd-]([Cl])([PH](c2ccccc2)(c2ccccc2)c2ccccc2)[N+](=C(/C=C/c2ccccc2)c2ccccc2)N1.[Cl-] [PdC3, [PdCl(L-C3)(PPh3)]Cl] | > 50 µM | – | > 50 µM | – | > 50 µM | 22.8 ± 1 µM | – | 11.1 ± 0.6 µM | 0.48 | – | > 50 µM | – | > 50 µM | – | – | – | –
